{"source": "patent US20200237852A1", "about": "“Small Molecule Enhancers of Paneth Cell Function and Differentiation” (Massachusetts Institute of Technology, priority 2019, published 2020)", "key": {"6-day ENR+CD cells [1]": {"system": "6-day ENR+CD cells", "experiment": "Cell pellet ATP after long-term (48-hour) treatment", "type": "cell-based, murine", "conditions": "low doses", "excerpt": "(§1) We next sought to profile potential long-term modulators of differentiated PC survival and antimicrobial secretion, as well as gauge the interaction between long-term modulators and short-term induced secretion (via CCh). To accomplish this, we employed a similar set up as in the short-term experiment, with the exception that upon plating day 4 ENR+CD cells we additionally supplemented in either MDP, LPS, TNF-α, or IFN-γ for the additional 2 days in culture and assayed all conditions for both basal and CCh-induced LYZ secretion over 3 hours on day 6 of differentiation (FIG. 3A). […] Additionally, we see that the long-term addition reduces CCh-induced secretory function relative to the untreated control for all agents (FIG. 3D).\nSmall intestinal crypts were isolated from C57BL/6 mice of both sexes, aged between three to six months in all experiments. Crypts were then cultured in a Matrigel culture system. Briefly, crypts were resuspended in basal culture medium (Advanced DMEM/F12 with 2 mM GlutaMAX and 10 mM HEPES; Thermo Fisher Scientific) at a 1:1 ratio with Corning™ Matrigel™ Membrane Matrix—GFR (Fisher Scientific) and plated at the center of each well of 24-well plates. Following Matrigel polymerization, 500 μL of small intestinal crypt culture medium (basal media plus 100× N2 supplement, 50×B27 supplement; Life Technologies, 500× N-acetyl-L-cysteine; Sigma-Aldrich) supplemented with growth factors EGF—E (50 ng/mL, Life Technologies), Noggin—N (100 ng/mL, PeproTech) and R-spondin 1—R (500 ng/mL, PeproTech) and small molecules CHIR99021—C (3 μM, LC Laboratories) and valproic acid—V (1 mM, Sigma-Aldrich) was added to each well. ROCK inhibitor Y-27632—Y (10 μM, R&D Systems) was added for the first 2 days of culture. Cells were cultured at 37° C. with 5% CO2, and cell culture medium was changed every other day. After 6 days of culture, crypt organoids were isolated from Matrigel by mechanical dissociation. To expand enriched ISCs (ENR+CV/Y) or Paneth Cells (ENR+CD), organoids were cultured in 24-well plates, suspended in 40 uL 3-D gels (50-50 GFR MATRIGEL®, Basal culture media), with 500 uL of crypt media supplemented with necessary growth factors and small molecules. […]\nFor 96-well plate high-throughput screening, 4-day differentiated (ENR+CD) cell clusters in 3D Matrigel were transferred to a “2.5-D” 96-well plate culture system. […] On the last repeat, pellet was resuspended in basal culture medium, the number of cell clusters counted, and centrifuged at 300 g for 3 min at 4° C. […] At end time points (following 2 days in culture and 3 hours of stimulation), lysozyme secretion and cell viability were assessed using Lysozyme Assay Kit and CellTiter-Glo 3D Cell Viability Assay (Promega), respectively, according to the manufacturers' protocols. […]"}, "6-day ENR+CD cells [2]": {"system": "6-day ENR+CD cells", "experiment": "Long-term (48-hour) modulators of basal and CCh-induced LYZ secretion", "type": "cell-based, murine", "conditions": "48-hour treatment", "excerpt": "as §1\nSmall intestinal crypts were isolated from C57BL/6 mice of both sexes, aged between three to six months in all experiments. Crypts were then cultured in a Matrigel culture system. Briefly, crypts were resuspended in basal culture medium (Advanced DMEM/F12 with 2 mM GlutaMAX and 10 mM HEPES; Thermo Fisher Scientific) at a 1:1 ratio with Corning™ Matrigel™ Membrane Matrix—GFR (Fisher Scientific) and plated at the center of each well of 24-well plates. Following Matrigel polymerization, 500 μL of small intestinal crypt culture medium (basal media plus 100× N2 supplement, 50×B27 supplement; Life Technologies, 500× N-acetyl-L-cysteine; Sigma-Aldrich) supplemented with growth factors EGF—E (50 ng/mL, Life Technologies), Noggin—N (100 ng/mL, PeproTech) and R-spondin 1—R (500 ng/mL, PeproTech) and small molecules CHIR99021—C (3 μM, LC Laboratories) and valproic acid—V (1 mM, Sigma-Aldrich) was added to each well. ROCK inhibitor Y-27632—Y (10 μM, R&D Systems) was added for the first 2 days of culture. Cells were cultured at 37° C. with 5% CO2, and cell culture medium was changed every other day. After 6 days of culture, crypt organoids were isolated from Matrigel by mechanical dissociation. To expand enriched ISCs (ENR+CV/Y) or Paneth Cells (ENR+CD), organoids were cultured in 24-well plates, suspended in 40 uL 3-D gels (50-50 GFR MATRIGEL®, Basal culture media), with 500 uL of crypt media supplemented with necessary growth factors and small molecules. ROCK inhibitor (Y) was added for the first two days of ISC culture following reconstitution from cryopreservation or trypLE passaging to single cells. Cell culture medium was changed every other day. After 4 days of culture in ENR+CV, cell clusters were differentiated to PCs under the ENR+CD condition for 96-well short and long-term screens. For 384-well differentiation screens, 4-day ENR+CV clusters were passaged to single cells using trypLE, replated and expanded another 3 days in 3-D ENR+CVY and then passaged directly into screens.\nFor 96-well plate high-throughput screening, 4-day differentiated (ENR+CD) cell clusters in 3D Matrigel were transferred to a “2.5-D” 96-well plate culture system. Briefly, cell culture gel and medium were homogenized via mechanical disruption and centrifuged at 300 g for 3 min at 4° C. […] On the last repeat, pellet was resuspended in basal culture medium, the number of cell clusters counted, and centrifuged at 300 g for 3 min at 4° C. […] At end time points (following 2 days in culture and 3 hours of stimulation), lysozyme secretion and cell viability were assessed using Lysozyme Assay Kit and CellTiter-Glo 3D Cell Viability Assay (Promega), respectively, according to the manufacturers' protocols. […]"}, "6-day ENR+CD cells [3]": {"system": "6-day ENR+CD cells", "experiment": "Short-term (3-hour) stimulation of LYZ secretion, 2.5-D 96-well platform", "type": "cell-based, murine", "excerpt": "We first sought to profile the potential short-term actors, IFN-γ, LPS, and CCh, and see if with the added resolution of this first-of-its-kind PC platform, we might be able to determine high-resolution EC50's. To generate sufficient cells for plating out all necessary conditions we first expanded and enriched ISCs in traditional 3-D culture and subsequently differentiated for 4 days towards PCs (ENR+CD). Next, we passaged and plated these cells into 96-well plates as 2.5-D and continued differentiating for an additional 2 days in ENR+CD. On day 6 of differentiation, each well was then washed with basal media repeatedly and stimulated with its respective agent, with a measurement of supernatant LYZ paired to cell pellet ATP (FIG. 2A). This screen was repeated on three separate occasions with cells from three distinct murine donors and analyzed combined. We first wanted to determine the approximate standardized effect size of each treatment at each dose, which was accomplished through the replicate-based strictly standardized mean difference (SSMD), an effect size measure based on the statistics of contrast variables, and particularly useful in screening applications as it is a measure which takes into account both mean difference and variance in a single measure. […] In total, we see that our 2.5-D platform does provide a reasonable system for assessing and screening for potential short-term modulators of PC antimicrobial secretion.\nSmall intestinal crypts were isolated from C57BL/6 mice of both sexes, aged between three to six months in all experiments. Crypts were then cultured in a Matrigel culture system. Briefly, crypts were resuspended in basal culture medium (Advanced DMEM/F12 with 2 mM GlutaMAX and 10 mM HEPES; Thermo Fisher Scientific) at a 1:1 ratio with Corning™ Matrigel™ Membrane Matrix—GFR (Fisher Scientific) and plated at the center of each well of 24-well plates. […]"}, "6-day ENR+CD cells [4]": {"system": "6-day ENR+CD cells", "experiment": "Cell pellet ATP after short-term (3-hour) stimulation, 2.5-D 96-well platform", "type": "cell-based, murine", "conditions": "CCh: adj. p<0.01 for 10 and 100 μM doses", "excerpt": "We first sought to profile the potential short-term actors, IFN-γ, LPS, and CCh, and see if with the added resolution of this first-of-its-kind PC platform, we might be able to determine high-resolution EC50's. To generate sufficient cells for plating out all necessary conditions we first expanded and enriched ISCs in traditional 3-D culture and subsequently differentiated for 4 days towards PCs (ENR+CD). Next, we passaged and plated these cells into 96-well plates as 2.5-D and continued differentiating for an additional 2 days in ENR+CD. On day 6 of differentiation, each well was then washed with basal media repeatedly and stimulated with its respective agent, with a measurement of supernatant LYZ paired to cell pellet ATP (FIG. 2A). This screen was repeated on three separate occasions with cells from three distinct murine donors and analyzed combined. We first wanted to determine the approximate standardized effect size of each treatment at each dose, which was accomplished through the replicate-based strictly standardized mean difference (SSMD), an effect size measure based on the statistics of contrast variables, and particularly useful in screening applications as it is a measure which takes into account both mean difference and variance in a single measure. […]"}, "[5]": {"system": "organoids differentiated under ENR+CV, ENR+CD, or ENR", "experiment": "Western blotting for LYZ in organoids", "type": "cell-based, C57BL/6 mice", "conditions": "six days in ENR+CV", "excerpt": "ISC-enriched organoids cultured in 3D Matrigel with ENRCV media were passaged to 24-well plate in 3D Matrigel with ENRCV. At day zero, media were replaced to ENR or ENRCD with or without indicated compounds, and media were replaced every other day. At day six, cells were harvested from Matrigel by mechanical disruption and suspended in basal media. Cell pellets were lysed with Pierce® IP lysis buffer (ThermoFisher, 87787) containing Halt™ Protease Inhibitor Cocktail, EDTA-Free (ThermoFisher, 87785) after 3-minute centrifuge at 300×g at 4° C. Cell extracts were resolved by NuPAGE® SDS-PAGE Gel system (ThermoFisher) and electroblotted onto polyvinylidene difluoride membranes using Criterion™ Blotter (Biorad). The membranes were blocked with 2% Blotting-Grade Blocker (Biorad, 1706404) in TBS-T (50 mM Tris-HCl, 150 mM NaCl, and 0.1% Tween 20, pH 8.0) and then probed with appropriate antibodies. Detection was performed using ECL Select™ Western Blotting Detection Reagent (Amersham, 45-000-999) and ImageQuant LAS4000 (GE Healthcare)."}, "ENR+CD organoids": {"system": "ENR+CD organoids", "experiment": "Flow cytometry analysis, 3D culture, XPO1 inhibitors", "type": "cell-based, C57BL/6 mice", "conditions": "6-day ENR+CD organoids", "procedure": "ISC-enriched organoids cultured in 3D Matrigel with ENRCV media were passaged to 24-well plate in 3D Matrigel with ENRCV. At day zero, media were replaced to ENRCD with or without indicated compounds, and media were replaced every other day. At day six, cells were washed with basal media, and then harvested from Matrigel by mechanical disruption in TrypLE Express (ThermoFisher, 12605010) to remove Matrigel and dissociate organoids to single cells. After vigorous pipetting and incubation at 37° C. for 20 min, dissociated organoids were strained through a 35 μm cell strainer into a tube (Falcon, 352235). The cell filtrate was centrifuged again at 300×g for 3 min at 4° C. to pellet the cells. Cell pellets were resuspended in FACS buffer (2% FBS in PBS), and then transferred to an ultra low-bind 96-well plate (Corning, 7007). Cells were stained with Zombie-violet viability dye (BioLegend, 423107) at 100× for viability staining and/or antibody staining solution. FITC-conjugated antibody for lysozyme (Dako, […]) and APC-conjugated antibody for CD24 (BioLegend, 138505) were used at 100× dilution. Flow cytometry was performed using an LSR Fortessa (BD; Koch Institute Flow Cytometry Core at MIT). The data were analyzed using FlowJo v10 software."}}, "data": [{"compound": "CC(=O)N[C@H]1C(O)O[C@H](CO)[C@@H](O)[C@@H]1O[C@H](C)C(=O)N[C@@H](C)C(=O)N[C@H](CCC(=O)O)C(N)=O", "note": "(mixture of isomers) [MDP, muramyl dipeptide]", "values": [{"measurement": "SSMD effect size of increase in cell number (ATP)", "setting": "6-day ENR+CD cells [1]", "value": "fairly moderate"}, {"measurement": "change in cell number (ATP rel. to ENR+CD)", "setting": "6-day ENR+CD cells [1]", "value": "apparent increases in cell number"}, {"measurement": "effect size of reduction of CCh-induced secretory function relative to untreated control", "setting": "6-day ENR+CD cells [2]; CCh-induced secretion over 3 hours on day 6", "value": "fairly moderate"}, {"measurement": "change in basal LYZ secretion (SSMD effect)", "setting": "6-day ENR+CD cells [2]; basal secretion over 3 hours on day 6", "value": "fairly moderate decrease in basal secretion"}]}, {"compound": "C[N+](C)(C)CCOC(N)=O.[Cl-]", "note": "[CCh, carbamyl choline]", "values": [{"measurement": "EC50", "setting": "6-day ENR+CD cells [3]; 3-hour stimulation of 6-day ENR+CD cells, 9-well replicates from 3 bio. donors, read-out: EC50 for LYZ secretion (least-squares dose-response fit)", "value": 5, "unit": "µM"}, {"measurement": "SSMD effect size as short-term modulator of LYZ secretion", "setting": "6-day ENR+CD cells [3]; 3-hour stimulation, across all tested doses", "value": "strong effect"}, {"measurement": "effect on cellular ATP", "setting": "6-day ENR+CD cells [4]", "value": "significant effect on cellular ATP"}]}, {"compound": "CCC(=C/[C@H](C)C/C=C/C(C)=C/[C@@H](C)C(=O)[C@@H](C)[C@H](O)[C@@H](C)C/C(C)=C/C(=O)O)/C=C/[C@@H]1OC(=O)C=C[C@@H]1C", "note": "[Leptomycin B]", "values": [{"measurement": "LYZ abundance on a per-mass protein normalized basis (western blot)", "setting": "[5]", "value": "appreciably increase LYZ abundance"}, {"measurement": "Paneth cell representation by flow cytometry", "setting": "ENR+CD organoids", "value": "statistically significant increases in Paneth cell representation"}]}]}
